Laboratory results taken from patent publication US20220242870A1, “HETEROCYCLE-FUSED PYRIMIDINE DERIVATIVE AND USE THEREOF” (VORONOI Inc., priority 2019, published 2022).

Legend:
MV4-11 cells = assay: AML cell proliferation inhibitory activity (CellTiter-Glo); format: cell-based; conditions: Homo sapiens, 72 hours
Method: The inhibitory activities of the example compounds according to the present invention on the proliferation of acute myeloid leukemia (AML) cells expressing the FLT3 mutant gene were evaluated. Specifically, RS4;11 and MV4-11 cells as acute myeloid leukemia cells expressing the FLT3 mutant gene were cultured in RPMI-1640 (Invitrogen) adding 10% FBS. The cells were seeded into each well of a clear bottom white 96-well plate (Corning) at 3000 to 5000 cells 24 hours before compound treatment. The compound was diluted in DMSO (diluted each three-fold, to a total of 12 concentrations) and injected at 0.5 μL each so as to be a final concentration of 0.3 nM to 50 μM. After 72 hours of the compound treatment, they were treated with CellTiter-Glo Luminescent Cell Viability assay (Promega) and stored at room temperature for 10 minutes, and luminescence intensities were measured with a reader (SynergyNeo, Biotek) to count viable cells. Each experiment was performed three times repeatedly. The result values were calculated as the cell growth rate (%) compared to the control treated with the solvent. The graph was derived using the GraphPad Prism program (version 5.0), the GI50 (nM) values were calculated, and the results were shown in Table 3 below.

human FLT3-ITD enzyme = molecular target: T1, human FLT3-ITD enzyme (Homo sapiens, UniProt P36888); assay: FLT3 enzyme inhibitory ability (ADP-Glo kinase assay); format: biochemical; conditions: human FLT3-ITD enzyme 10 ng, ATP 10 μM, 25° C. 1 hour
T1 sequence (P36888 1-993): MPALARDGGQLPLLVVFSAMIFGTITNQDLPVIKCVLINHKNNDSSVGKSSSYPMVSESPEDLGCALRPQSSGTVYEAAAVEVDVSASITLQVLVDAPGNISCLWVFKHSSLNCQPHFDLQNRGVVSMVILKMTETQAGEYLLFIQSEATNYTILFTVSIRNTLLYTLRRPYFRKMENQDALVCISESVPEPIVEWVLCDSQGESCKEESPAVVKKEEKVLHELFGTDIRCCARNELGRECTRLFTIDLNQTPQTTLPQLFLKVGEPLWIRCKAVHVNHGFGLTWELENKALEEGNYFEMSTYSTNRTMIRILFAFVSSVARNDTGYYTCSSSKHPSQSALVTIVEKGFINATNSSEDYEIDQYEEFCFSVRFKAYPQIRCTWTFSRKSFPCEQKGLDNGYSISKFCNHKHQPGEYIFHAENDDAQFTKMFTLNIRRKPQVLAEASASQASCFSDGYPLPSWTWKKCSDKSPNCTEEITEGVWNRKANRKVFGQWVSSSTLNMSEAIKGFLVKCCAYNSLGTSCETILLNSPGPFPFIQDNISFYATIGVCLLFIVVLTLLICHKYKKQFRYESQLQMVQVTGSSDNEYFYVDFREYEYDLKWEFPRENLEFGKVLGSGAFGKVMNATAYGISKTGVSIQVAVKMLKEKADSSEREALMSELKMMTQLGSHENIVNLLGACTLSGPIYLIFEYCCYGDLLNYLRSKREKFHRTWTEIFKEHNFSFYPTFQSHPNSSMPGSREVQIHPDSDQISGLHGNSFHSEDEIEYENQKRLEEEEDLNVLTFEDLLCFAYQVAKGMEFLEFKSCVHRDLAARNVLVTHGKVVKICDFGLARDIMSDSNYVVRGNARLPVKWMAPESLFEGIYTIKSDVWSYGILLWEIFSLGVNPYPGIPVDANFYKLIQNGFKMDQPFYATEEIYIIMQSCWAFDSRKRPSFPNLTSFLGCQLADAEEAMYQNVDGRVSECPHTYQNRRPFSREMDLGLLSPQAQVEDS
Procedure, shortened: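 Purified human FLT3-ITD (10 ng) with 10 μM ATP and specific substrate in 40 mM Tris-HCl pH 7.4, 20 mM MgCl2, 0.5 mg/mL BSA, 50 μM DTT, 1 h at 25 °C. ADP formation read by ADP-Glo luminescence; IC50 (nM) versus solvent-treated control.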

MCF-7 cells = assay: Breast cancer cell line proliferation inhibitory activity (CellTiter-Glo 2.0); format: cell-based; conditions: Homo sapiens, MCF7, 120 hours
Method: In order to evaluate the breast cancer cell line cell proliferation inhibitory activities of Examples according to the present invention, the following experiment was performed. Breast cancer cells of MCF-7 (Korean Cell Line Bank) were planted in a clear bottom white 96-well plate (Corning) so as to be 3×10^3/150 μl/well, and a culture solution comprising the compound continuously diluted in multiples of 3 at 12 concentrations (0.00001-2 mM) and a DMSO control group was added by 0.5 μl/well and treated so that the final concentration was 0.00005-10 μM, and then cultured in a 37° C. CO2 incubator for 120 hours. After 120 hours, the plate treated with the compound is taken out, and CellTiter-Glo® 2.0 Assay (Promega) solution is treated at 150 μl/well and then they mix well. They mix well at room temperature for 10 minutes or so, and the fluorescence is measured with a microplate reader. The data were expressed as a percentage in proportion to the vehicle standard treated cells, the GI50 (nM) values were calculated using GraphPad Prism 8.3.0 (GraphPad software Inc., San Diego), and the results were shown in Table 3 below.

human GST-HPK1 (1-346) = molecular target: T2, human GST-HPK1 (1-346) (Homo sapiens, UniProt Q92918); assay: HPK1 enzyme inhibitory ability (ADP-Glo kinase assay); format: biochemical; conditions: human GST-HPK1 3 ng, ATP 3 uM, 25° C. 2 hours
T2 construct: purified human GST-HPK1 (1-346, Signalchem) enzyme; purchased Signalchem
T2 sequence (Q92918 1-346): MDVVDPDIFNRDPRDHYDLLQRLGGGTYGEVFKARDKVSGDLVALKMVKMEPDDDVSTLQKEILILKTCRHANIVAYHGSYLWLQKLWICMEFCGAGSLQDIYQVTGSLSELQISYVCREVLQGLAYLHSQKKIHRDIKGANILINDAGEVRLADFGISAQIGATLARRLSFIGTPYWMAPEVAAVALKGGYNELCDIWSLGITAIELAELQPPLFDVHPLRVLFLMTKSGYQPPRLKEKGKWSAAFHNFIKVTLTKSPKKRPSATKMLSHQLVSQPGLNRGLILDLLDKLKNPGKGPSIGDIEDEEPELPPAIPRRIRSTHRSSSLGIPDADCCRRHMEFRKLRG
Procedure, shortened: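 Human GST-HPK1(1-346), 3 ng, reacted with 3 uM ATP and specific substrate in 40 mM Tris-HCl pH 7.4, 20 mM MgCl2, 0.5 mg/mL BSA, 50 uM DTT for 2 h at 25° C. ADP-Glo luminescence read; IC50 (nM) relative to untreated solvent control.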

Row | GI50 (MV4-11 cells) | IC50 (human FLT3-ITD enzyme) | GI50 (MCF-7 cells) | IC50 (human GST-HPK1 (1-346)) | SMILES
1 | > 500 nM |  |  |  | Cc1cn(Cc2cccc(Nc3nc(N4N=CCC4c4ccccc4)c4sccc4n3)c2)cn1 (stereo not shown) [Example 24, N-(3-((4-methyl-1H-imidazol-1-yl)methyl)phenyl)-4-(5-phenyl-4,5-dihydro-1H-pyrazol-1-yl)thieno[3,2-d]pyrimidin-2-amine]
2 | > 500 nM |  |  |  | O=C(c1ccc(Nc2nc(N3N=CCC3c3ccccc3)c3sccc3n2)cc1)N1CCOCC1 (stereo not shown) [Example 22, morpholino(4-((4-(5-phenyl-4,5-dihydro-1H-pyrazol-1-yl)thieno[3,2-d]pyrimidin-2-yl)amino)phenyl)methanone]
3 | > 500 nM |  |  |  | Cc1cn(Cc2ccc(Nc3nc(N4N=CCC4c4ccccc4)c4sccc4n3)cc2)cn1 (stereo not shown) [Example 23, N-(4-((4-methyl-1H-imidazol-1-yl)methyl)phenyl)-4-(5-phenyl-4,5-dihydro-1H-pyrazol-1-yl)thieno[3,2-d]pyrimidin-2-amine]
4 | 250 to 500 nM |  |  |  | CN1CCN(c2ccc(Nc3nc(N4OCC[C@@H]4c4ccccc4)c4cc[nH]c4n3)cc2)CC1 [Example 128, (R)-N-(4-(4-methylpiperazin-1-yl)phenyl)-4-(3-phenylisoxazolidin-2-yl)-7H-pyrrolo[2,3-d]pyrimidin-2-amine]
5 | > 500 nM |  |  |  | CN(C)CCn1cc(Nc2nc(N3N=CCC3c3ccccc3)c3sccc3n2)cn1 (stereo not shown) [Example 27, N-(1-(2-(dimethylamino)ethyl)-1H-pyrazol-4-yl)-4-(5-phenyl-4,5-dihydro-1H-pyrazol-1-yl)thieno[3,2-d]pyrimidin-2-amine]
6 | > 500 nM | > 500 nM |  |  | CN1CCN(c2ccc(Nc3nc(N4N=CCC4c4ccccc4)c4sccc4n3)nc2)CC1 (stereo not shown) [Example 4, N-(5-(4-methylpiperazin-1-yl)pyridin-2-yl)-4-(5-phenyl-4,5-dihydro-1H-pyrazol-1-yl)thieno[3,2-d]pyrimidin-2-amine]
7 | 250 to 500 nM | > 500 nM |  |  | COc1cc(Nc2nc(N3OCC[C@@H]3c3ccccc3)c3cc[nH]c3n2)ccc1N1CCC(N2CCN(C)CC2)CC1 [Example 129, (R)-N-(3-methoxy-4-(4-(4-methylpiperazin-1-yl)piperidin-1-yl)phenyl)-4-(3-phenylisoxazolidin-2-yl)-7H-pyrrolo[2,3-d]pyrimidin-2-amine]
8 | > 500 nM | ≥ 250 nM |  |  | COc1cc(N2CCC(N3CCN(C)CC3)CC2)ccc1Nc1nc(N2N=CCC2c2ccccc2)c2sccc2n1 (stereo not shown) [Example 10, N-(2-methoxy-4-(4-(4-methylpiperazin-1-yl)piperidin-1-yl)phenyl)-4-(5-phenyl-4,5-dihydro-1H-pyrazol-1-yl)thieno[3,2-d]pyrimidin-2-amine]
9 |  | > 500 nM | > 500 nM | > 500 nM | CC1(C)OC(=O)c2ccc(Nc3nc(N4OCC[C@H]4c4ccccc4)c4cc[nH]c4n3)cc21 [Example 115, (S)-3,3-dimethyl-5-((4-(3-phenylisoxazolidin-2-yl)-7H-pyrrolo[2,3-d]pyrimidin-2-yl)amino)isobenzofuran-1(3H)-one]
10 |  | > 500 nM | > 500 nM | > 500 nM | CN(C)[C@@H]1CCN(c2cccc(Nc3nc(N4OCC[C@@H]4c4ccccc4)c4sccc4n3)c2)C1 [Example 63, N-(3-((R)-3-(dimethylamino)pyrrolidin-1-yl)phenyl)-4-((R)-3-phenylisoxazolidin-2-yl)thieno[3,2-d]pyrimidin-2-amine]
11 |  | > 500 nM | > 500 nM | > 500 nM | CN(C)[C@H]1CCN(c2cccc(Nc3nc(N4OCC[C@@H]4c4ccccc4)c4sccc4n3)c2)C1 [Example 64, N-(3-((S)-3-(dimethylamino)pyrrolidin-1-yl)phenyl)-4-((R)-3-phenylisoxazolidin-2-yl)thieno[3,2-d]pyrimidin-2-amine]
12 |  | > 500 nM | > 500 nM | ≥ 250 nM | CN1C[C@H]2C[C@@H]1CN2c1cc(Nc2nc(N3OCC[C@H]3c3ccccc3)c3cc[nH]c3n2)cc(S(C)(=O)=O)c1 [Example 92, N-(3-((1R,4R)-5-methyl-2,5-diazabicyclo[2.2.1]heptan-2-yl)-5-(methylsulfonyl)phenyl)-4-((S)-3-phenylisoxazolidin-2-yl)-7H-pyrrolo[2,3-d]pyrimidin-2-amine]
13 |  | 250 to 500 nM | > 500 nM | > 500 nM | CN1CCN(c2ccc(Nc3nc(N4N=CCC4c4ccccc4)c4cc[nH]c4n3)cc2)CC1 (stereo not shown) [Example 68, N-(4-(4-methylpiperazin-1-yl)phenyl)-4-(5-phenyl-4,5-dihydro-1H-pyrazol-1-yl)-7H-pyrrolo[2,3-d]pyrimidin-2-amine]
14 |  | > 500 nM | > 500 nM | > 500 nM | COc1cc(Nc2nc(N3N=CCC3c3ccccc3)c3sccc3n2)cc(C(=O)N2CCN(CCO)CC2)c1 (stereo not shown) [Example 15, (4-(2-hydroxyethyl)piperazin-1-yl)(3-methoxy-5-((4-(5-phenyl-4,5-dihydro-1H-pyrazol-1-yl)thieno[3,2-d]pyrimidin-2-yl)amino)phenyl)methanone]
15 |  | > 500 nM | > 500 nM | > 500 nM | COc1cc(Nc2nc(N3OCC[C@@H]3c3ccccc3)c3sccc3n2)cc(C(=O)N2CCN(CCO)CC2)c1 [Example 67, (R)-(4-(2-hydroxyethyl)piperazin-1-yl)(3-methoxy-5-((4-(3-phenylisoxazolidin-2-yl)thieno[3,2-d]pyrimidin-2-yl)amino)phenyl)methanone]
16 | > 500 nM |  |  |  | C1=NN(c2nc(Nc3ccc(N4CCOCC4)cc3)nc3ccsc23)C(c2ccccc2)C1 (stereo not shown) [Example 3, N-(4-morpholinophenyl)-4-(5-phenyl-4,5-dihydro-1H-pyrazol-1-yl)thieno[3,2-d]pyrimidin-2-amine]
17 | > 500 nM |  |  |  | Cc1cc(N2CCOCC2)ccc1Nc1nc(N2N=CCC2c2ccccc2)c2sccc2n1 (stereo not shown) [Example 21, N-(2-methyl-4-morpholinophenyl)-4-(5-phenyl-4,5-dihydro-1H-pyrazol-1-yl)thieno[3,2-d]pyrimidin-2-amine]
